In US5494895A, “Scorpion peptide margatoxin with immunosuppressant activity” (Merck & Co., Inc., priority 1993, dated 1996):
Peptide text beside a SMILES is read from it.

Key:
Maxi-K channel = molecular target: T1, Maxi-K channel (Bos taurus, UniProt Q28204); assay: [125I]ChTX binding to bovine aortic smooth muscle sarcolemmal membranes; settings: concentrations up to 10 nM
T1 construct: from tissue; host or cells: bovine aortic smooth muscle sarcolemmal membranes
Description: The potency of MgTX as an inhibitor of [^125 I]ChTX binding to Kv 1.3 was evaluated. The binding of [^125 I]ChTX to either rat brain synaptic plasma membrane vesicles (Kv 1.3 channel; Vazquez et al., J. Biol. Chem. 265, 15564, 1990) or bovine aortic smooth muscle sarcolemmal membranes (Maxi-K channel; Vazquez et al., J. Biol. Chem. 264, 20402, 1989) was determined as described. Briefly, membrane vesicles were incubated with [^125 I]ChTX in the presence or absence of other added agents, until equilibrium was achieved. Separation of bound from free ligand was accomplished by filtration through GF/C glass fiber filters (WHATMAN) that had been presoaked in 0.5% polyethyleneimine. Nonspecific binding was determined in the presence of 10 nM unlabeled ChTX. Data from saturation experiments were analyzed in a Scatchard representation to determine Kd and Bmax values. Triplicate samples were obtained for each experimental point and the data were averaged. The standard deviation of the mean was typically less than 2%. […] As an indication of selectivity, MgTX had no effect on [^125 I]ChTX binding to the Maxi-K channel in smooth muscle membranes at concentrations up to 10 nM.

[1] = molecular target: T2, lymphocyte Kv 1.3 current (Homo sapiens, UniProt P22001); assay: Whole cell patch clamp of human peripheral T-lymphocytes; format: cell-based
T2 construct: endogenous in cells; host or cells: purified human peripheral blood T lymphocytes
Description: Ionic currents were recorded from human peripheral T-lymphocytes using the whole cell patch clamp technique described in Cahalan, M. and Neher, E., Meth. Enzymol. 207, 3, 1992. Purified human T cells were obtained as described in Leonard et al., Proc. Natl. Acad. Sci. U.S.A., 89, 10094, 1992, and recordings were carried out in a bath solution consisting of ^125 mM NaCl, 2.5 mM KCl, 1.0 mM CaCl2, 2.0 mM MgCl2, 10 mM HEPES (potassium salt), 10 mM glucose, 5 mM Na-pyruvate, and 0.05% BSA. The pH was adjusted to 7.2, and experiments were performed at room temperature (19°-22° C.). The intracellular (pipette) solution contained 140 mM K-glutamate, 1 mM MgCl2, 10 mM HEPES (potassium salt), and 0.1 mM EGTA. The pH was adjusted to 7.2. Patch pipettes were fabricated from DAGAN (Minneapolis, Minn.) LG-16 glass and had resistances of 2 to 8M.OMEGA.. Currents were measured using a DAGAN model 3900 patch clamp. Delivery of command voltages, data acquisition, and post-acquisition analysis were aided by a microcomputer running the Pclamp program suite (AXON INSTRUMENTS, Foster City, Calif.).
Methods for oocyte isolation and micro-injection were previously described in Goldin, Meth. Cell Biol, 36, 487, 1991, and Swanson and Folander, Meth. Enzymol., 207, 310, 1992. Currents expressed in oocytes were measured using a DAGAN model CA-1 two-electrode voltage clamp. Delivery of command voltages, data acquisition and post-acquisition analysis were aided by a microcomputer running the Pclamp program suite. The oocyte bathing solution consisted of 96 mM NaCl, 2.5 mM KCl, 1 mM MgCl2, 1.8 mM CaCl2, 10 mM HEPES, and 0.05% BSA. The pH was 7.2. All recordings were obtained at room temperature (19°-22° C.). The intracellular microelectrodes were fabricated from DAGAN LE-16 glass in a two-stage pull to a final resistance of 0.6 to 2M.OMEGA. and filled with 3M KCl. For both lymphocyte and oocyte experiments, peptides were diluted into the extracellular solution from 20 μM aqueous stock containing 100 mM NaCl. The presence of 0.05% BSA in the bath solution inhibited non-specific loss of dilute peptide toxins in the perfusion tubing.
Both native and recombinant MgTX were tested for their ability to block voltage gated K^+ channels. […] There was insufficient native toxin to carry out selectivity studies, so those were conducted using the recombinant material exclusively. […] The apparent IC50 for inhibition of the lymphocyte Kv 1.3 current is between 20 to 100 pM. […] As reported previously, MgTX has no effect on three different ChTX-sensitive, Ca^2+ -activated K^+ channels of lymphocytes, even at 100 nM (Leonard et al., Proc. Natl. Acad. Sci. U.S.A. 89, 10094, 1992).

[2] = tested on: three different ChTX-sensitive, Ca2+-activated K+ channels of lymphocytes; settings: even at 100 nM; cited from earlier work

T2 sequence (P22001 whole entry): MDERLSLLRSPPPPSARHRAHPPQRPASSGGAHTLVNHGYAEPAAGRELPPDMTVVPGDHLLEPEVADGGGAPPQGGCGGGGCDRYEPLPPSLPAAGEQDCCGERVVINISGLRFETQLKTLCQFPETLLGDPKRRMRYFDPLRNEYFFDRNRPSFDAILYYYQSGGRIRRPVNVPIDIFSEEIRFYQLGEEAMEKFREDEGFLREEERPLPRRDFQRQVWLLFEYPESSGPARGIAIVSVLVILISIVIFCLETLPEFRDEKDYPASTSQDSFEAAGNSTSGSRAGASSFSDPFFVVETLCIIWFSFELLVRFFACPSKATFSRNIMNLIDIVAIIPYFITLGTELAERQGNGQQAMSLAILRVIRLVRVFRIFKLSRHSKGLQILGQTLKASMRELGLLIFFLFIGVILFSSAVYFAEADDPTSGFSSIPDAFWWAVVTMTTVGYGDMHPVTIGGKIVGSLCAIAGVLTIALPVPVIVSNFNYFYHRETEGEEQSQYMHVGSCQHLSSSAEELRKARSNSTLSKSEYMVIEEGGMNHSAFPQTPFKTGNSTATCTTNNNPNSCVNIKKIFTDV
T1 sequence (Q28204 whole entry): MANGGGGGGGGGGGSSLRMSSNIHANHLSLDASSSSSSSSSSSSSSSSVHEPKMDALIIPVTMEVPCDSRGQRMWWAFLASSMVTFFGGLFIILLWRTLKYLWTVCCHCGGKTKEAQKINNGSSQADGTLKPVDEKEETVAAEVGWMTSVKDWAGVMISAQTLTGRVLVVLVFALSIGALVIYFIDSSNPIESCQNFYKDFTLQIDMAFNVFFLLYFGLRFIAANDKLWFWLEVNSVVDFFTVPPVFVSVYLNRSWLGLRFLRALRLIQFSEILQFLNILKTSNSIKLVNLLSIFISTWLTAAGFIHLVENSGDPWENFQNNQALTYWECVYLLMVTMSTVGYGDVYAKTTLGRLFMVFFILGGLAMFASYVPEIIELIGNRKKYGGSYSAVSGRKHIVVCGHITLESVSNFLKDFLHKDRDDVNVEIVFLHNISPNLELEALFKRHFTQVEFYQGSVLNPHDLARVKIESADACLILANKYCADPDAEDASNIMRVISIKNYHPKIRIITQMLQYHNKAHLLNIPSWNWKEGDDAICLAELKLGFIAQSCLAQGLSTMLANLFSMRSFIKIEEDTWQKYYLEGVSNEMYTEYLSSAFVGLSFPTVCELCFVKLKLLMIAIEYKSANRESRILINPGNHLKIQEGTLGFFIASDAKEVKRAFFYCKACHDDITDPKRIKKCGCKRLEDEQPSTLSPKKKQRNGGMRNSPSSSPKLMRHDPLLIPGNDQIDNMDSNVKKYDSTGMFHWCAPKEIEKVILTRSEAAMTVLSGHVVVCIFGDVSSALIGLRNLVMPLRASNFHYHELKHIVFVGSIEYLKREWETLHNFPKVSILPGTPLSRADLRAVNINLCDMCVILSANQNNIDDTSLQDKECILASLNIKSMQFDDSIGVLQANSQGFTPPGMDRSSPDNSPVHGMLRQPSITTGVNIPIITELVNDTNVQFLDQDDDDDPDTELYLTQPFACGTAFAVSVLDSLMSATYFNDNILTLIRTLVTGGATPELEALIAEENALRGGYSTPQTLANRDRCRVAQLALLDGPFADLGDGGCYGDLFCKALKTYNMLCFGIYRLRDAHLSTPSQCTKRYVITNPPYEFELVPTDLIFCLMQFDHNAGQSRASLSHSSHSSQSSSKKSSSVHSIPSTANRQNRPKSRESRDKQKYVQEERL
T1 sequence (Q28067 whole entry partner): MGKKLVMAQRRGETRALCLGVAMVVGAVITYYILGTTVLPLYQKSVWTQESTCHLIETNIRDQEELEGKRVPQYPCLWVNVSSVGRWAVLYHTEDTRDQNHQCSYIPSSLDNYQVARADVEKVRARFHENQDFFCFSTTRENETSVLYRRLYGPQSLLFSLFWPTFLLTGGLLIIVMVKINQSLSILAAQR

## CC[C@H](C)[C@H](NC(=O)[C@@H](N)[C@@H](C)O)C(=O)N[C@H](C(=O)N[C@@H](CC(N)=O)C(=O)N[C@H](C(=O)N[C@@H](CCCCN)C(=O)N[C@H]1CSSC[C@@H]2NC(=O)[C@H](CCCCN)NC(=O)[C@H](C)NC(=O)CNC(=O)[C@H](C)NC(=O)[C@H](CO)NC(=O)[C@H](CCC(N)=O)NC(=O)CNC(=O)[C@H](Cc3ccccc3)NC(=O)[C@H](CCC(N)=O)NC(=O)[C@H](C)NC(=O)[C@H](CCCCN)NC(=O)[C@@H]3CSSC[C@@H](C(=O)N[C@@H](Cc4ccc(O)cc4)C(=O)N4CCC[C@H]4C(=O)N[C@@H](Cc4c[nH]cn4)C(=O)O)NC(=O)[C@H](CCCCN)NC(=O)[C@H](CSSC[C@H](NC(=O)[C@H](CCC(N)=O)NC(=O)[C@H](CCCCN)NC(=O)[C@@H]4CCCN4C(=O)[C@H](CO)NC(=O)[C@H]([C@@H](C)O)NC1=O)C(=O)N[C@@H](CC(C)C)C(=O)N1CCC[C@H]1C(=O)N1CCC[C@H]1C(=O)N3)NC(=O)[C@H](CCCCN)NC(=O)CNC(=O)[C@H](CC(N)=O)NC(=O)[C@H](CCSC)NC2=O)C(C)C)[C@@H](C)CC [MgTX, Margatoxin] (HELM PEPTIDE1{T.I.I.N.V.K.C.T.S.P.K.Q.C.L.P.P.C.K.A.Q.F.G.Q.S.A.G.A.K.C.M.N.G.K.C.K.C.Y.P.H}$PEPTIDE1,PEPTIDE1,7:R3-29:R3|PEPTIDE1,PEPTIDE1,13:R3-34:R3|PEPTIDE1,PEPTIDE1,17:R3-36:R3$$$V2.0; N-terminus and C-terminus assumed; bridges inferred)
Maxi-K channel
  effect on [125I]ChTX binding to the Maxi-K channel in smooth muscle membranes: no effect
[1]
  t1/2 of recovery from block following removal from the bath: > 20 min
[1]; at 1 nM
  inhibition of the voltage activated K+ channel from human lymphocytes: Complete inhibition
[1]; lymphocyte Kv 1.3 current
  potency relative to ChTX on the same preparation: five to ten-fold more potent
[1]; read-out: apparent IC50 for inhibition of the lymphocyte Kv 1.3 current
  IC50: 0.02 to 0.1 nM
[2]
  effect on three ChTX-sensitive Ca2+-activated K+ channels of lymphocytes: no effect
